The subject of one experiment is S. aureus. Also noted: method as in 7 sources, one per row (each row's own in cited_ref): ref 39 (a number printed in a supplementary file, which may have a reference list of its own: not looked up in the article's list) ||| ref 40 (a number printed in a supplementary file, which may have a reference list of its own: not looked up in the article's list) ||| ref 41 (a number printed in a supplementary file, which may have a reference list of its own: not looked up in the article's list) ||| ref 42 (a number printed in a supplementary file, which may have a reference list of its own: not looked up in the article's list) ||| ref 43 (a number printed in a supplementary file, which may have a reference list of its own: not looked up in the article's list) ||| ... The following applies: 1 × 10^5 ~ 3.5 × 10^5 cfu/ml, MHB; cited from earlier work.

The subject of another experiment is P. aeruginosa. Also noted: method as in 7 sources, one per row (each row's own in cited_ref): ref 39 (a number printed in a supplementary file, which may have a reference list of its own: not looked up in the article's list) ||| ref 40 (a number printed in a supplementary file, which may have a reference list of its own: not looked up in the article's list) ||| ref 41 (a number printed in a supplementary file, which may have a reference list of its own: not looked up in the article's list) ||| ref 42 (a number printed in a supplementary file, which may have a reference list of its own: not looked up in the article's list) ||| ref 44 (a number printed in a supplementary file, which may have a reference list of its own: not looked up in the article's list) ||| ... The following applies: 1 × 10^5 ~ 3.5 × 10^5 cfu/ml, MHB; cited from earlier work.

The next experiment deals with A. baumannii KCCM 40203. Put plainly: microbe, parasite or virus in culture. Particulars: Acinetobacter baumannii, KCCM40203, read-out: MIC at resistance induction condition, A. baumannii KCCM 40203. How it is done: (§1) To assess antimicrobial activity, the MIC50 and MIC90 were measured using broth microdilution following CLSI guidelines. […] Each experiment was performed in triplicate. Meropenem (Sigma, Darmstadt, Germany) and colistin were used as control antibiotics. Cation-adjusted Mueller–Hinton broth (CAMHB) (Becton, Dickinson and Company, Franklin Lakes, USA) with supplied calcium (50 mg/L) and magnesium (10 mg/L) was used for the CLSI-test condition. Bacteria in midlog phase and peptides were separately diluted in CAMHB. The bacteria and peptide solutions were then mixed in 96-well polyethylene plates (SPL, Gyeonggi-do, Korea) and incubated for 18 h at 37 °C. The final concentration for bacteria was 5 × 10^5 CFU/ml. […] The MIC was defined to be the lowest concentration of peptide without visible turbidity by comparing with control antibiotics with the unaided eye. […] Each experiment was performed in triplicate. MICs in albumin and acetic acid solutions were measured using the same protocol but with 0.2% bovine serum albumin (Bovogen, Keilor, Australia), 0.01% acetic acid (Merck, New Jersey, USA), and CAMHB with both calcium and magnesium. In addition, MICs used in the antibiotic resistance acquisition test, the outer–inner membrane permeation test, and the transmembrane potential test and for FE-SEM were individually determined. The final bacterial concentrations used were as follows: for resistance acquisition, optical density (OD) 0.01; for outer–inner membrane permeability assays (LB), OD 0.1; for the transmembrane potential test, 1 × 10^8 CFU/ml (OD 0.171); […]. Inhibitory activity unidentifiable by direct observation was determined by counting the CFUs. Each experiment was performed at least twice.
A. baumannii (KCCM 40203) and S. aureus (KCTC 1621) were selected as drug-sensitive bacteria. Mutation-susceptible tetracycline (an antibiotic that targets ribosomes) (Sigma, Darmstadt, Germany) and ofloxacin (an antibiotic that targets DNA gyrase) (Sigma, Darmstadt, Germany), mutation-resistant colistin (an antibiotic that targets lipopolysaccharide) (Sigma, Darmstadt, Germany) and vancomycin (an antibiotic that targets peptidoglycan pentapeptide) (Sigma, Darmstadt, Germany) were used as control antibiotics. The MIC for each antibiotic against bacteria (at OD 0.01) was measured. […] The MIC for each passage was confirmed by additional broth microdilutions under CLSI guidelines. Resistance acquisition was induced for 30 days (30 passages), and each MIC value was confirmed by an independent MIC test against bacteria at each passage.

Another experiment deals with S. aureus KCTC 1621. As to the kind of experiment: microbe, parasite or virus in culture. In kind it is cell-based. The following applies: Staphylococcus aureus, KCTC1621, read-out: MIC at resistance induction condition, S. aureus KCTC 1621. As to the method: as §1
A. baumannii (KCCM 40203) and S. aureus (KCTC 1621) were selected as drug-sensitive bacteria. […] The MIC for each antibiotic against bacteria (at OD 0.01) was measured. […]

Here are results for four compounds from publication PMC9643456, “Matching amino acids membrane preference profile to improve activity of antimicrobial peptides” (Communications Biology, 2022).

Converted amounts (≈) assume the structure as drawn. Ends that are not written are not given here.

In the case of “KFKWWRMLI (not fully specified (C-terminus))”, the “MIC (Strain 2), S. aureus ATCC 25923” value with S. aureus is 1.2 µM. Moreover, the “MIC (Strain 1), P. aeruginosa H103” value in the experiment on P. aeruginosa was 2.6 µM.

“RLWWKIWLK (not fully specified (C-terminus))”: in the experiment with S. aureus, the “MIC (Strain 2), S. aureus ATCC 25923” value was 1.4 µM. For the same compound, the “MIC (Strain 1), P. aeruginosa H103” value in the experiment on P. aeruginosa was 22.5 µM.

`CC1COc2c(N3CCN(C)CC3)c(F)cc3c(=O)c(C(=O)O)cn1c23` (centres unmarked) [Ofloxacin]: the MIC with A. baumannii KCCM 40203 and with S. aureus KCTC 1621 was 1.25 µM (≈ 0.452 µg/mL) throughout.

On to “WKWLKKWIK (not fully specified (C-terminus))”, for which, in the experiment with S. aureus, the “MIC (Strain 2), S. aureus ATCC 25923” value is 0.7 µM. Further, the “MIC (Strain 1), P. aeruginosa H103” value in the experiment with P. aeruginosa is 2.9 µM.
